Assay results as given in the supplement of paper PMC10307832.

What was measured:
Experiment in all cases: relative viability (nuclei count vs DMSO), 5 days (fraction); higher = more cells survive
[1] = compound: C1CC(C1)(C(=O)O)C(=O)O.[NH2-].[NH2-].[Pt+2] [Carboplatin] + CCNC(=O)c1noc(-c2cc(C(C)C)c(O)cc2O)c1-c1ccc(CN2CCOCC2)cc1 [Luminespib] (partner 0.01 µM)
In short: (§1)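 Relative viability was taken as the ratio of nuclei in treated wells to nuclei in vehicle wells. Lung cancer cell lines in 1536-well plates received compounds by pin tool one day after seeding, either one drug alone or a fixed anchor-drug dose plus five library-drug doses (not always all listed) in √10 steps. Nuclei were counted on 4× images after 5 days of treatment, and values are medians of duplicate plates.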

[2] = compound: C1CC(C1)(C(=O)O)C(=O)O.[NH2-].[NH2-].[Pt+2] [Carboplatin] + Cc1nc(Nc2ncc(C(=O)Nc3c(C)cccc3Cl)s2)cc(N2CCN(CCO)CC2)n1 [Dasatinib] (partner 0.075 µM)
In short: as §1

[3] = compound: CC[C@H](C)N1C=C(C2=C(C=C(C=C21)C3=CN=C(C=C3)N4CCNCC4)C(=O)NCC5=C(C=C(NC5=O)C)C)C [GSK126] + COc1cccc2cc(-c3nc([C@H]4CC[C@H](C(=O)O)CC4)n4ncnc(N)c34)[nH]c12 [OSI-027] (partner 0.5 µM)
In short: as §1

[4] = compound: NS(=O)(=O)OC[C@@H]1C[C@@H](n2ccc3c(N[C@H]4CCc5ccccc54)ncnc32)C[C@@H]1O [MLN4924] + O=C(CCCCCCC(=O)Nc1ccccc1)NO [Vorinostat] (partner 1 µM)
In short: as §1

Cell Line	relative viability ([1]; first compound 0.08 µM)	relative viability ([1]; first compound 0.253 µM)	relative viability ([1]; first compound 0.8 µM)	relative viability ([1]; first compound 2.53 µM)	relative viability ([1]; first compound 8 µM)	relative viability ([2]; first compound 0.08 µM)	relative viability ([2]; first compound 0.253 µM)	relative viability ([2]; first compound 0.8 µM)	relative viability ([2]; first compound 2.53 µM)	relative viability ([2]; first compound 8 µM)	relative viability ([3]; first compound 0.08 µM)	relative viability ([3]; first compound 0.253 µM)	relative viability ([3]; first compound 0.8 µM)	relative viability ([3]; first compound 2.53 µM)	relative viability ([3]; first compound 8 µM)	relative viability ([4]; first compound 0.04 µM)	relative viability ([4]; first compound 0.1265 µM)	relative viability ([4]; first compound 0.4 µM)	relative viability ([4]; first compound 1.265 µM)	relative viability ([4]; first compound 4 µM)
NCI-H2126	0.862	1.07	0.992	0.931	0.695	0.727	0.693	0.71	0.57	0.501	0.725	0.861	0.721	0.649	0.707	0.814	0.869	0.555	0.237	0.267
NCI-H2170	0.911	0.783	0.47	0.351	0.283	0.634	0.654	0.663	0.583	0.468	0.809	0.817	0.712	0.749	0.737	0.774	0.364	0.326	0.135	0.13
NCI-H2228	0.179	0.136	0.115	0.158	0.132	0.667	0.482	0.425	0.444	0.326	0.635	0.729	0.579	0.613	0.634	0.73	0.601	0.581	0.13	0.0923
NCI-H2342	0.898	0.789	0.68	0.788	0.608	0.328	0.344	0.311	0.28	0.294	0.678	0.616	0.622	0.626	0.669	0.809	0.814	0.837	0.873	0.625
NCI-H2347	0.573	0.421	0.368	0.432	0.352	0.325	0.26	0.346	0.322	0.273	0.433	0.356	0.49	0.463	0.346	0.494	0.562	0.433	0.347	0.327
NCI-H2405	0.813	0.838	0.591	0.606	0.724	0.234	0.206	0.214	0.191	0.215	0.602	0.633	0.611	0.622	0.662	0.861	0.849	0.411	0.181	0.19
NCI-H3122	0.102	0.0787	0.0812	0.09	0.0968	0.759	0.996	0.87	0.961	0.816	1.23	0.953	0.963	1.01	0.896	0.708	0.579	0.232	0.103	0.0771
PC-3 [JPC-3]	0.807	0.749	0.616	0.716	0.703	1	1.09	0.985	0.95	0.864	0.839	0.847	0.76	0.822	0.855	0.735	0.787	0.409	0.338	0.468
PC-14	0.116	0.144	0.148	0.107	0.155	0.288	0.292	0.261	0.131	0.068	1.06	0.854	0.757	0.939	0.83	0.81	0.781	0.154	0.0306	0.0361
RERF-LC-KJ	1.24	1.18	1.13	0.918	0.5	0.892	0.767	0.747	0.706	0.517	0.648	0.66	0.597	0.652	0.575	0.579	0.328	0.205	0.192	0.236
SK-LU-1	0.22	0.21	0.192	0.21	0.198	0.198	0.205	0.166	0.179	0.165	0.435	0.37	0.401	0.416	0.387	0.581	0.425	0.161	0.196	0.244
SK-MES-1	0.891	0.763	0.714	0.777	0.81	0.574	0.354	0.344	0.379	0.363	0.626	0.649	0.637	0.654	0.712	1.14	1.02	0.351	0.162	0.216
SW 900	0.16	0.168	0.162	0.161	0.15	0.837	0.616	0.442	0.409	0.467	0.605	0.505	0.502	0.473	0.466	–	0.414	0.182	0.175	0.208
SW 1573	0.298	0.293	0.344	0.579	0.222	0.58	0.495	0.474	0.507	0.329	0.959	0.656	0.665	0.625	0.846	0.48	0.521	0.14	0.0422	0.0551
